Measurements published in the supplement of paper PMC10307832.

The cell lines below were run with CC(C)(C)c1nc(-c2cccc(NS(=O)(=O)c3c(F)cccc3F)c2F)c(-c2ccnc(N)n2)s1 [Dabrafenib] + COc1cccc2cc(-c3nc([C@H]4CC[C@H](C(=O)O)CC4)n4ncnc(N)c34)[nH]c12 [OSI-027] (partner 0.5 µM) (assay: relative viability (nuclei count vs DMSO), 5 days (fraction); higher = more cells survive). Settings: first compound 0.003 µM.
In short: (§1)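 One day after seeding in 1536-well plates, lung cancer cell lines were dosed by pin tool. Dosing was either single-drug or a fixed anchor-drug dose plus five library-drug doses (not always all listed) in √10 steps. After 5 days, nuclei were stained in one fix-and-stain step and counted on 4× images, and relative viability is the nuclei count of treated wells over that of vehicle wells, given as the median of duplicate plates.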

Cell Line | relative viability
201T | 0.306
NCI-H1666 | 0.805
NCI-H2023 | 0.325
HARA | 0.262
NCI-H1395 | 0.377
SK-MES-1 | 0.254

Same assay, conditions: first compound 0.009487 µM

Cell Line | relative viability
LC-2-ad | 1.14
201T | 0.786
NCI-H1666 | 0.869
NCI-H2023 | 0.455
NCI-H322M | 0.545
HARA | 0.618
NCI-H1395 | 0.692
SK-MES-1 | 0.663

Same assay, conditions: first compound 0.03 µM

Cell Line | relative viability
LC-2-ad | 0.83
201T | 0.642
NCI-H1666 | 0.833
NCI-H2023 | 0.385
NCI-H322M | 0.503
NCI-H1395 | 0.594
SK-MES-1 | 0.552

Same assay, conditions: first compound 0.09487 µM

Cell Line | relative viability
LC-2-ad | 0.76
201T | 0.656
NCI-H1666 | 0.797
NCI-H2023 | 0.355
NCI-H322M | 0.515
HARA | 0.327
NCI-H1395 | 0.583
SK-MES-1 | 0.495

Same assay, conditions: first compound 0.3 µM

Cell Line | relative viability
LC-2-ad | 0.859
201T | 0.808
NCI-H1666 | 0.968
NCI-H2023 | 0.395
NCI-H322M | 0.448
HARA | 0.864
NCI-H1395 | 0.589
SK-MES-1 | 0.23

These cell lines were tested with CC(C)(C)c1nc(-c2cccc(NS(=O)(=O)c3c(F)cccc3F)c2F)c(-c2ccnc(N)n2)s1 [Dabrafenib] + CC(=O)c1c(C)c2cnc(Nc3ccc(N4CCNCC4)cn3)nc2n(C2CCCC2)c1=O [Palbociclib] (partner 0.5 µM) in the same assay as above. Settings: first compound 0.003 µM.
In short: as §1

Cell Line | relative viability
LC-2-ad | 0.52
201T | 0.368
NCI-H1666 | 0.643
NCI-H2023 | 0.419

Same assay, conditions: first compound 0.009487 µM

Cell Line | relative viability
LC-2-ad | 0.511
201T | 0.366
NCI-H1666 | 0.671
NCI-H2023 | 0.417
NCI-H322M | 0.545
HARA | 0.325
NCI-H1395 | 0.655
SK-MES-1 | 0.296

Same assay, conditions: first compound 0.03 µM

Cell Line | relative viability
LC-2-ad | 0.495
201T | 0.368
NCI-H1666 | 0.675
NCI-H2023 | 0.48
NCI-H1395 | 0.623
SK-MES-1 | 0.27

Same assay, conditions: first compound 0.09487 µM

Cell Line | relative viability
LC-2-ad | 0.476
201T | 0.318
NCI-H1666 | 0.565
NCI-H2023 | 0.371
NCI-H322M | 0.526
HARA | 0.304
NCI-H1395 | 0.642
SK-MES-1 | 0.258

Same assay, conditions: first compound 0.3 µM

Cell Line | relative viability
LC-2-ad | 0.478
201T | 0.376
NCI-H1666 | 0.686
NCI-H2023 | 0.421
NCI-H322M | 0.477
HARA | 0.338
